According to patent US10596223B2, “JNK inhibitor molecules for treatment of various diseases” (Xigen Inflammation Ltd., priority 2011, dated 2020):
Square brackets hold non-standard residues; d marks the D form. Ends that are not written are not given here. Peptide text beside a SMILES is read from it.

Key:
hJNK2 = hJNK2 (Homo sapiens, UniProt P45984); assay: hJNK2 | IC50
Excerpt: (§1) Table printed on a drawing sheet, Fig. 2 Head of the field: hJNK2 | IC50 The patent's description of the figure: FIG. 2: Table illustrating the inhibitory efficacy of several JNK inhibitors (SEQ ID NOs: 193, 2, 3, 5, 6, and 7) according to the present invention. Given are the IC50 values in the nM range, the respective standard error of the mean and the number of experiments performed (n). First copying reader's note: The sheet prints no unit for IC50 and SEM; decimal commas are used and lower-case residue letters are as printed. Where the first naming reader finds the target: head: hJNK2

hJNK3 = hJNK3 (Homo sapiens, UniProt P53779); assay: hJNK3 | IC50
hJNK3, sequence (P53779 whole entry, looked up): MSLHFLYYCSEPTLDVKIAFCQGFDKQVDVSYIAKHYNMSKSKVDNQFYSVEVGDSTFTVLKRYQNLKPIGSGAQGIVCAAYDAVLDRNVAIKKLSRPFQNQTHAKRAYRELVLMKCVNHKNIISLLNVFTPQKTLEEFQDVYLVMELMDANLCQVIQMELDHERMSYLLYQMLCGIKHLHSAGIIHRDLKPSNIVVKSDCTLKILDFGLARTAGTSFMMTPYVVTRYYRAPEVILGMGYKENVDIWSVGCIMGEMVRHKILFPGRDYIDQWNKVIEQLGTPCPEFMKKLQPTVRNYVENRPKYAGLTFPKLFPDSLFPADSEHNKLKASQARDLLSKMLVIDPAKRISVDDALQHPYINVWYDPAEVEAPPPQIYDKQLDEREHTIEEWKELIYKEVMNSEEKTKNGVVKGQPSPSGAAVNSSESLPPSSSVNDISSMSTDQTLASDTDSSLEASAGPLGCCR
Excerpt: as §1, with “hJNK3” for “hJNK2”

hJNK1 = hJNK1 (Homo sapiens, UniProt P45983); assay: hJNK1 | IC50
hJNK1, sequence (P45983 whole entry, looked up): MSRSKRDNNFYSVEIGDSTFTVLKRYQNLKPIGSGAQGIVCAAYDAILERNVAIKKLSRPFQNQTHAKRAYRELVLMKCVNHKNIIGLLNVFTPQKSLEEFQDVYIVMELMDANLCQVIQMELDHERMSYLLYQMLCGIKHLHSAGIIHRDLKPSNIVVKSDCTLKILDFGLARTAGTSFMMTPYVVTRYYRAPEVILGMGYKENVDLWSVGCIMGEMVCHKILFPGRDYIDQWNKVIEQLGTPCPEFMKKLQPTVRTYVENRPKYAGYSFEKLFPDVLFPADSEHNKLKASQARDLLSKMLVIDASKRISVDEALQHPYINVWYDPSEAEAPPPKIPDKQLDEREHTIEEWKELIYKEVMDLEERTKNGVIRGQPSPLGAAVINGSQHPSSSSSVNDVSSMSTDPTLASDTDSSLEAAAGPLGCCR
Excerpt: as §1, with “hJNK1” for “hJNK2”

[1] = test system: endotoxins-induced uveitis albino rat model; assay: Endotoxins induced uveitis (EIU), single intravenous injection, clinical scoring 24 hours after LPS; type: in vivo; set-up: key to clinical score of ocular inflammation, mean score (mean±SEM) / clinical score of ocular inflammation, median: ocular inflammation score per eye, 0 = none to 4 = intense (+1 fibrin); conditions: 20 μg/eye sub-conjunctival, 24 hours after LPS
Procedure: FIG. 28 Clinical evaluation of administration of different amounts of the JNK inhibitor according to SEQ ID NO: 172 in albino rats after intravenous administration (endotoxins induced uveitis model). Form left to right: Vehicle, 0.015 mg/kg (i.v.) of SEQ ID NO: 172; 0.18 mg/kg (i.v.) of SEQ ID NO: 172; 1.8 mg/kg (i.v.) of SEQ ID NO: 172, 2 mg/kg (i.v.) of SEQ ID NO: 197 and 20 μg dexamethasone (administered directly by subconjunctival injection to the eye). Indicated is the clinical score (mean and the SEM).
The anti-inflammatory potency of the JNK inhibitor of SEQ ID NO: 172 was tested in albino rats following intravenous administration (EIU/LPS model). The aim of this study was to determine the effects of single intravenous injections of SEQ ID NO: 172 (0.015, 0.18, and 1.80 mg/kg) on the inflammatory response in an endotoxins-induced uveitis albino rat model and to compare these affects to those obtained with prior art JNK inhibitor of SEQ ID NO: 197 (2 mg/kg). As a further control served phosphate sodic dexamethasone.
Sixty (60) male Lewis rats were randomly divided into six (6) groups of ten (10) animals each. EIU was induced by footpad injection of lipopolysaccharide (LPS, 1 mg/kg). NaCl (0.9%), SEQ ID NO: 197 at 2 mg/kg and SEQ ID NO: 172 at three concentrations (1.80 mg/kg, 0.18 mg/kg and 0.015 mg/kg) were administered by intravenous injection. Phosphate sodic dexamethasone ([…]) was administered by sub-conjunctival injection in both eyes. 24 hours after LPS injection, inflammatory response was evaluated by clinical scoring.
The intensity of clinical ocular inflammation was scored on a scale from 0 to 4 for each eye: • Grade 0 no inflammation • Grade 1 slight iris and conjunctival vasodilation • Grade 2 moderate iris and conjunctival vasodilation with flare • Grade 3 intense iris and conjunctival vasodilation with flare • Grade 4 intense inflammatory reaction • (+1) fibrin formation and seclusion of pupils

[2] = Stability (half-life) in human serum, intact peptide by UPLC-MS; type: in vitro ADME; conditions: human serum (50% in FIG. 5; 10 and 50% in PBS), 0.1 mM peptide
Procedure: FIG. 5: Stability of JNK inhibitors with SEQ ID NOs: 172, 196 and 197 in 50% human serum. The JNK inhibitor with SEQ ID NO: 196 was totally degraded into amino acids residues within 6 hours (A). The JNK inhibitor with SEQ ID NO: 172 was completely degraded only after 14 days (B). The JNK inhibitor with SEQ ID NO: 197 was stable at least up to 30 days (B).
The JNK inhibitors with the sequence of SEQ ID NOs: 196, 197, and 172 (0.1 mM final concentration) were digested in human serum (10 and 50% in PBS 1×). The experiment was performed as described by Tugyi et al. (Proc Natl Acad Sci USA, 2005, 413-418). The remaining intact peptide was quantified by UPLC-MS. Stability was assessed for SEQ ID NOs: 196, 197, and 172 identically but in two separate assays. While the JNK inhibitor with SEQ ID NO: 196 was totally degraded into amino acids residues within 6 hours, the JNK inhibitor with SEQ ID NO: 172 was completely degraded only after 14 days. The JNK inhibitor with SEQ ID NO: 197 was still stable after 30 days.

Hela cells = assay: Internalization of transporter constructs, 24 hours, fluorescence of cell extracts (FIG. 6); type: cell-based
Procedure: The transporter sequences analyzed correspond to SEQ ID NOs: 52-94 plus SEQ ID NOs: 45, 47, 46, 43 and 99 (FIG. 6a) and SEQ ID NOs: 100-147 (FIG. 6b). […] Hela cells were incubated 24 hours in 96 well plate with […] of the respective transporters. The cells were then washed twice with an acidic buffer (0.2M Glycin, 0.15M NaCl, pH 3.0) and twice with PBS. Cells were broken by the addition of RIPA lysis buffer. The relative amount of internalized peptide was then determined by reading the fluorescence intensity (Fusion Alpha plate reader; PerkinElmer) of each extract followed by background subtraction.
Hela cells were incubated 24 hours in 96 well plate with […] of the r3-L-TAT-derived transporters. The cells were then washed twice with an acidic buffer (0.2M Glycin, 0.15M NaCl, pH 3.0) and twice with PBS. Cells were broken by the addition of RIPA lysis buffer. The relative amount of internalized peptide was then determined by reading the fluorescence intensity (Fusion Alpha plate reader; PerkinElmer) of each extract followed by background subtraction

hJNK2, sequence (P45984 whole entry, looked up): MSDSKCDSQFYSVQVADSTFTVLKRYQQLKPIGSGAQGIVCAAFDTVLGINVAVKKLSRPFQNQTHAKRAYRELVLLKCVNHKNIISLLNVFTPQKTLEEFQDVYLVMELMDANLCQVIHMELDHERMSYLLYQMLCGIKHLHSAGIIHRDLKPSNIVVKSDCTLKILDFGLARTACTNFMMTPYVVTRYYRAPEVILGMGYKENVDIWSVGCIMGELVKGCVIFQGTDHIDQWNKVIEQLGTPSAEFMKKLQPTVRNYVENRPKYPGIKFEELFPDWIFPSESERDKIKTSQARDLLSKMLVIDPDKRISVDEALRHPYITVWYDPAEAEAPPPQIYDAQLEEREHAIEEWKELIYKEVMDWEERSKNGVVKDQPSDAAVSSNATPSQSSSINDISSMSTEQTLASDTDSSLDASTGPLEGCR

In the case of `CC(C)C[C@H](NC(=O)[C@H](CC(N)=O)NC(=O)[C@H](CC(C)C)NC(=O)[C@@H](NC(=O)[C@@H](NC(=O)[C@@H]1CCCN1C(=O)[C@H](CCCNC(=N)N)NC(=O)[C@H](CCCCN)NC(=O)[C@@H]1CCCN1C(=O)[C@H](N)CCCNC(=N)N)[C@@H](C)O)[C@@H](C)O)C(=O)N[C@@H](Cc1ccccc1)C(N)=O` [SEQ ID NO: 2] (H-[dR]PKRPTTLNLF-NH2), the IC50 (hJNK2) is reported as 424 nM and the IC50 (hJNK3) is reported as 103 nM.

`CC(C)C[C@H](NC(=O)[C@H](CC(N)=O)NC(=O)[C@H](CC(C)C)NC(=O)[C@@H](NC(=O)[C@@H](NC(=O)[C@@H]1CCCN1C(=O)[C@H](CCCNC(=N)N)NC(=O)[C@@H](CCCCN)NC(=O)[C@@H]1CCCN1C(=O)[C@@H](N)CCCNC(=N)N)[C@@H](C)O)[C@@H](C)O)C(=O)N[C@@H](Cc1ccccc1)C(N)=O` [SEQ ID NO: 3] (H-RP[dK]RPTTLNLF-NH2) gave an IC50 (hJNK2) of 1210 nM, an IC50 (hJNK1) of 312 nM and an IC50 (hJNK3) of 359 nM.

`CC(C)C[C@H](NC(=O)[C@@H](NC(=O)[C@@H](NC(=O)[C@@H]1CCCN1C(=O)[C@H](CCCNC(=N)N)NC(=O)[C@H](CCCCN)NC(=O)[C@@H]1CCCN1C(=O)[C@@H](N)CCCNC(=N)N)[C@@H](C)O)[C@@H](C)O)C(=O)N[C@H](CC(N)=O)C(=O)N[C@@H](CC(C)C)C(=O)N[C@@H](Cc1ccccc1)C(N)=O` [SEQ ID NO: 5] (H-RPKRPTTL[dN]LF-NH2) showed an IC50 (hJNK1) of 348 nM and an IC50 (hJNK3) of 387 nM.

Compound `CC(C)C[C@H](NC(=O)[C@@H](NC(=O)[C@@H](NC(=O)[C@@H]1CCCN1C(=O)[C@H](CCCNC(=N)N)NC(=O)[C@H](CCCCN)NC(=O)[C@@H]1CCCN1C(=O)[C@@H](N)CCCNC(=N)N)[C@@H](C)O)[C@@H](C)O)C(=O)N[C@H](CCCNC(=N)N)C(=O)N[C@@H](CC(C)C)C(=O)N[C@@H](Cc1ccccc1)C(N)=O` [SEQ ID NO: 6] (H-RPKRPTTL[dR]LF-NH2) has an IC50 (hJNK2) of 359 nM, an IC50 (hJNK1) of 90.5 nM and an IC50 (hJNK3) of 120 nM.

With `CC(C)C[C@H](NC(=O)[C@H](CC(N)=O)NC(=O)[C@H](CC(C)C)NC(=O)[C@@H](NC(=O)[C@@H](NC(=O)[C@@H]1CCCN1C(=O)[C@H](CCCNC(=N)N)NC(=O)[C@H](CCCCN)NC(=O)[C@@H]1CCCN1C(=O)[C@@H](N)CCCNC(=N)N)[C@@H](C)O)[C@@H](C)O)C(=O)N[C@H](Cc1ccccc1)C(N)=O` [SEQ ID NO: 7] (H-RPKRPTTLNL[dF]-NH2) the IC50 (hJNK2) was 278 nM and the IC50 (hJNK3) was 89 nM.

In the case of `C[C@@H]1C[C@H]2[C@@H]3CCC4=CC(=O)C=C[C@]4(C)[C@@]3(F)[C@@H](O)C[C@]2(C)[C@@]1(O)C(=O)CO` [dexamethasone, reference compound], the “clinical score of ocular inflammation, mean score (mean±SEM)” value [1] is reported as 0.8±0.2 and the “clinical score of ocular inflammation, median” value [1] is reported as 0.5.

For “GRKKRRQRRRPPRPKRPTTLNLFPQVPRSQD [SEQ ID NO: 196, reference compound]”, the “totally degraded into amino acids residues within” value [2] was at most 6 h.

Work on H-RPKRPTTLNLF-NH2 [SEQ ID NO: 193] yielded an IC50 (hJNK2) of 184 nM, an IC50 (hJNK1) of 39.5 nM and an IC50 (hJNK3) of 67.7 nM.

In the case of “rYKRrQRRr ([dR]YKR[dR]QRR[dR]) [SEQ ID NO: 142]”, the “transporter activity (Y in position 2)” value (Hela cells) is reported as “highest transporter activity”.
